Tested on: 282377-053-R-J1-PDC complex spheroid viability
Assay: Anticancer human tumor 282377-053-R-J1-PDC patient-derived colon adenocarcinoma cell line growth inhibition [POLQ]
Conditions: for IC50: curve of first compound; for viability, T/C: stronger effect = lower value
Procedure, shortened: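 PDC + HUVEC + MSC complex spheroids; POLQ inhibitors ± partner drugs; top conc. at/near clinical Cmax, else 10 microM (SN-38 1 microM), half-log dilutions; 37 degrees C, 5% CO2.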

[1] = second compound 0.0316 µM, first compound 0.0316 µM
[2] = second compound 0.0316 µM, first compound 0.1 µM
[3] = second compound 0.0316 µM, first compound 0.316 µM
[4] = second compound 0.0316 µM, first compound 1 µM
[5] = second compound 0.0316 µM, first compound 3.16 µM
[6] = second compound 0.0316 µM, first compound 10 µM
[7] = second compound 0.1 µM, first compound 0.0316 µM
[8] = second compound 0.1 µM, first compound 0.1 µM
[9] = second compound 0.1 µM, first compound 0.316 µM
[10] = second compound 0.1 µM, first compound 1 µM
[11] = second compound 0.1 µM, first compound 3.16 µM
[12] = second compound 0.1 µM, first compound 10 µM
[13] = second compound 0.316 µM, first compound 0.0316 µM
[14] = second compound 0.316 µM, first compound 0.1 µM
[15] = second compound 0.316 µM, first compound 0.316 µM
[16] = second compound 0.316 µM, first compound 1 µM
[17] = second compound 0.316 µM, first compound 3.16 µM
[18] = second compound 0.316 µM, first compound 10 µM
[19] = second compound 1 µM, first compound 0.0316 µM
[20] = second compound 1 µM, first compound 0.1 µM
[21] = second compound 1 µM, first compound 0.316 µM
[22] = second compound 1 µM, first compound 1 µM
[23] = second compound 1 µM, first compound 3.16 µM
[24] = second compound 1 µM, first compound 10 µM
[25] = second compound 3.16 µM, first compound 0.0316 µM
[26] = second compound 3.16 µM, first compound 0.1 µM
[27] = second compound 3.16 µM, first compound 0.316 µM
[28] = second compound 3.16 µM, first compound 1 µM
[29] = second compound 3.16 µM, first compound 3.16 µM
[30] = second compound 3.16 µM, first compound 10 µM
[31] = second compound 10 µM, first compound 0.0316 µM
[32] = second compound 10 µM, first compound 0.1 µM
[33] = second compound 10 µM, first compound 0.316 µM
[34] = second compound 10 µM, first compound 1 µM
[35] = second compound 10 µM, first compound 3.16 µM
[36] = second compound 10 µM, first compound 10 µM
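Further: spheroids exposed to compounds for seven days.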
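Wherever viability, T/C is given: 100% = DMSO vehicle control viability.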

## C=CC(=O)N1CCN(c2nc(=O)n(-c3c(C)ccnc3C(C)C)c3nc(-c4c(O)cccc4F)c(F)cc23)C(C)C1 (stereo unspecified) + COC1C(OC(N)=O)C(O)C(Oc2ccc3c(O)c(NC(=O)c4ccc(O)c(CC=C(C)C)c4)c(=O)oc3c2C)OC1(C)C
Second compound 0.0316 µM
  IC50: > 10 µM
Second compound 0.1 µM
  IC50: > 10 µM
Second compound 0.316 µM
  IC50: > 10 µM
Second compound 1 µM
  IC50: > 10 µM
Second compound 3.16 µM
  IC50: > 10 µM
Second compound 10 µM
  IC50: > 10 µM
[1]
  viability, T/C: 114%
[2]
  viability, T/C: 103%
[3]
  viability, T/C: 102%
[4]
  viability, T/C: 94.9%
[5]
  viability, T/C: 111%
[6]
  viability, T/C: 94.4%
[7]
  viability, T/C: 107%
[8]
  viability, T/C: 116%
[9]
  viability, T/C: 96.5%
[10]
  viability, T/C: 115%
[11]
  viability, T/C: 108%
[12]
  viability, T/C: 102%
[13]
  viability, T/C: 105%
[14]
  viability, T/C: 124%
[15]
  viability, T/C: 113%
[16]
  viability, T/C: 100%
[17]
  viability, T/C: 113%
[18]
  viability, T/C: 77%
[19]
  viability, T/C: 94.9%
[20]
  viability, T/C: 114%
[21]
  viability, T/C: 114%
[22]
  viability, T/C: 98.1%
[23]
  viability, T/C: 89.6%
[24]
  viability, T/C: 85.4%
[25]
  viability, T/C: 115%
[26]
  viability, T/C: 113%
[27]
  viability, T/C: 102%
[28]
  viability, T/C: 90.1%
[29]
  viability, T/C: 95.2%
[30]
  viability, T/C: 90.5%
[31]
  viability, T/C: 106%
[32]
  viability, T/C: 109%
[33]
  viability, T/C: 105%
[34]
  viability, T/C: 114%
[35]
  viability, T/C: 112%
[36]
  viability, T/C: 111%

## CC(C)n1c(=O)n(C)c2cnc3cc(F)c(-c4ccc(OCCCN5CCCCC5)nc4)cc3c21 + COC1C(OC(N)=O)C(O)C(Oc2ccc3c(O)c(NC(=O)c4ccc(O)c(CC=C(C)C)c4)c(=O)oc3c2C)OC1(C)C
Second compound 0.0316 µM
  IC50: > 10 µM
Second compound 0.1 µM
  IC50: > 10 µM
Second compound 0.316 µM
  IC50: > 10 µM
Second compound 1 µM
  IC50: > 10 µM
Second compound 3.16 µM
  IC50: > 10 µM
Second compound 10 µM
  IC50: > 10 µM
[1]
  viability, T/C: 116%
[2]
  viability, T/C: 125%
[3]
  viability, T/C: 113%
[4]
  viability, T/C: 104%
[5]
  viability, T/C: 112%
[6]
  viability, T/C: 120%
[7]
  viability, T/C: 107%
[8]
  viability, T/C: 116%
[9]
  viability, T/C: 110%
[10]
  viability, T/C: 104%
[11]
  viability, T/C: 118%
[12]
  viability, T/C: 103%
[13]
  viability, T/C: 108%
[14]
  viability, T/C: 93%
[15]
  viability, T/C: 105%
[16]
  viability, T/C: 108%
[17]
  viability, T/C: 107%
[18]
  viability, T/C: 89.6%
[19]
  viability, T/C: 112%
[20]
  viability, T/C: 88.4%
[21]
  viability, T/C: 99.5%
[22]
  viability, T/C: 106%
[23]
  viability, T/C: 119%
[24]
  viability, T/C: 78.4%
[25]
  viability, T/C: 113%
[26]
  viability, T/C: 114%
[27]
  viability, T/C: 108%
[28]
  viability, T/C: 114%
[29]
  viability, T/C: 106%
[30]
  viability, T/C: 101%
[31]
  viability, T/C: 98.2%
[32]
  viability, T/C: 104%
[33]
  viability, T/C: 93.8%
[34]
  viability, T/C: 99.2%
[35]
  viability, T/C: 95.8%
[36]
  viability, T/C: 98.8%

## CCc1cc2c(N3CCc4c(cc(Cn5ccnc5)cc4-c4cn(C)nc4C(F)(F)F)C3=O)cc(C)nc2c(OC)n1 + COC1C(OC(N)=O)C(O)C(Oc2ccc3c(O)c(NC(=O)c4ccc(O)c(CC=C(C)C)c4)c(=O)oc3c2C)OC1(C)C
Second compound 0.0316 µM
  IC50: > 10 µM
Second compound 0.1 µM
  IC50: > 10 µM
Second compound 0.316 µM
  IC50: > 10 µM
Second compound 1 µM
  IC50: > 10 µM
Second compound 3.16 µM
  IC50: > 10 µM
Second compound 10 µM
  IC50: > 10 µM
[1]
  viability, T/C: 130%
[2]
  viability, T/C: 152%
[3]
  viability, T/C: 172%
[4]
  viability, T/C: 158%
[5]
  viability, T/C: 123%
[6]
  viability, T/C: 74.5%
[7]
  viability, T/C: 120%
[8]
  viability, T/C: 157%
[9]
  viability, T/C: 124%
[10]
  viability, T/C: 131%
[11]
  viability, T/C: 134%
[12]
  viability, T/C: 68.9%
[13]
  viability, T/C: 132%
[14]
  viability, T/C: 126%
[15]
  viability, T/C: 132%
[16]
  viability, T/C: 140%
[17]
  viability, T/C: 119%
[18]
  viability, T/C: 67.2%
[19]
  viability, T/C: 141%
[20]
  viability, T/C: 128%
[21]
  viability, T/C: 143%
[22]
  viability, T/C: 158%
[23]
  viability, T/C: 108%
[24]
  viability, T/C: 80.7%
[25]
  viability, T/C: 109%
[26]
  viability, T/C: 125%
[27]
  viability, T/C: 133%
[28]
  viability, T/C: 126%
[29]
  viability, T/C: 128%
[30]
  viability, T/C: 73.8%
[31]
  viability, T/C: 111%
[32]
  viability, T/C: 109%
[33]
  viability, T/C: 114%
[34]
  viability, T/C: 143%
[35]
  viability, T/C: 123%
[36]
  viability, T/C: 80%
